Assay [1] addresses T1, human adenosine A2A receptor (Homo sapiens, UniProt P29274).
T1 construct: expressed in transfected cells; host or cells: CHO-K1 cells with cAMP inducible beta-galactosidase reporter gene
The assay can be described thus: Adenosine A2A Receptor Functional Assay (A2AGAL2). The assay is classed as cell-based. To be noted: for IC50: CHO-K1 cells overexpressing human A2A receptor, cAMP inducible beta-galactosidase reporter, antagonist mode vs 15 nM NECA challenge; for A1/A2A: selectivity ratio of A1Gal2 value to A2AGal2 value. The method, then: Adenosine A2A Receptor Functional Assay (A2AGAL2)
To initiate the functional assay, cryopreserved CHO—K1 cells overexpressing the human adenosine A2A receptor and containing a cAMP inducible beta-galactosidase reporter gene were thawed, centrifuged, DMSO containing media removed, and then seeded with fresh culture media into clear 384-well tissue culture treated plates (BD #353961) at a concentration of 10K cells/well. Prior to assay, these plates were cultured for two days at 37° C., 5% CO2, 90% Rh. On the day of the functional assay, culture media was removed and replaced with 45 μL assay medium (Hams/F-12 Modified (Mediatech #10-080CV) supplemented w/0.1% BSA). Test compounds were diluted and 11 point curves created at a 1000× concentration in 100% DMSO. Immediately after addition of assay media to the cell plates, 50 nL of the appropriate test compound antagonist or agonist control curves were added to cell plates using a Cartesian Hummingbird. Compound curves were allowed to incubate at room temperature on cell plates for approximately 15 minutes before addition of a 15 nM NECA (Sigma E2387) agonist challenge (5 μL volume). A control curve of NECA, a DMSO/Media control, and a single dose of Forskolin (Sigma F3917) were also included on each plate. After additions, cell plates were allowed to incubate at 37° C., 5% CO2, 90% Rh for 5.5-6 hours. After incubation, media were removed, and cell plates were washed 1×50 μL with DPBS w/o Ca & Mg (Mediatech 21-031-CV). Into dry wells, 20 μL of 1× Reporter Lysis Buffer (Promega E3971 (diluted in dH2O from 5× stock)) was added to each well and plates frozen at −20° C. overnight. For β-galactosidase enzyme colorimetric assay, plates were thawed out at room temperature and 20 μL 2× assay buffer (Promega) was added to each well. Color was allowed to develop at 37° C., 5% CO2, 90% Rh for 1-1.5 h or until reasonable signal appeared. The colorimetric reaction was stopped with the addition of 60 μL/well 1M sodium carbonate. Plates were counted at 405 nm on a SpectraMax Microplate Reader (Molecular Devices). Data was analyzed in Microsoft Excel and IC/EC50 curves were fit using a standardized macro.

For assay [2], the target named is T2, human adenosine A1 receptor (Homo sapiens, UniProt P30542).
T2 construct: expressed in transfected cells; host or cells: CHO-K1 cells with cAMP inducible beta-galactosidase reporter gene
T2 sequence (P30542 1-326): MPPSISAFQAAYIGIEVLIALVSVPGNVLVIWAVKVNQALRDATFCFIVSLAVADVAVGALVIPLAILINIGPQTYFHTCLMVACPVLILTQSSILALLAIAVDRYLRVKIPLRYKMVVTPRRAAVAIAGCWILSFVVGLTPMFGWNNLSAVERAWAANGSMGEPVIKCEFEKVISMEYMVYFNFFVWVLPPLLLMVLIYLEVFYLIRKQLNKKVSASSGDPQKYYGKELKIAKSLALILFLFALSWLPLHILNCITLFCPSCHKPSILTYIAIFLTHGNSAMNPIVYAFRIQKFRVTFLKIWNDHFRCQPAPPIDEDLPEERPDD
In words: Adenosine A1 Receptor Functional Assay (A1GAL2). The assay is classed as cell-based. The conditions noted are these: CHO-K1 cells overexpressing human A1 receptor, cAMP inducible beta-galactosidase reporter; antagonist mode vs 4 nM r-PIA/1 uM Forskolin challenge. The method, then:
Adenosine A1 Receptor Functional Assay (A1GAL2)
To initiate the functional assay, cryopreserved CHO—K1 cells overexpressing the human adenosine A1 receptor and containing a cAMP inducible beta-galactosidase reporter gene were thawed, centrifuged, DMSO containing media removed, and then seeded with fresh culture media into clear 384-well tissue culture treated plates (BD #353961) at a concentration of 10K cells/well. Prior to assay, these plates were cultured for two days at 37° C., 5% CO2, 90% Rh. On the day of the functional assay, culture media was removed and replaced with 45 μL assay medium (Hams/F-12 Modified (Mediatech # 10-080CV) supplemented w/0.1% BSA). Test compounds were diluted and 11 point curves created at a 1000× concentration in 100% DMSO. Immediately after addition of assay media to the cell plates, […] of the appropriate test compound antagonist or agonist control curves were added to cell plates using a Cartesian Hummingbird. Compound curves were allowed to incubate at room temperature on cell plates for approximately 15 minutes before addition of a 4 nM r-PIA (Sigma P4532)/1 uM Forskolin (Sigma F3917) agonist challenge (5 μL volume). A control curve of r-PIA in 1 uM Forskolin, a DMSO/Media control, and a single dose of Forskolin were also included on each plate. After additions, cell plates were allowed to incubate at 37° C., 5% CO2, 90% Rh for 5.5-6 hours. After incubation, media was removed, and cell plates were washed 1×50 μL with DPBS w/o Ca & Mg (Mediatech 21-031-CV). Into dry wells, 20 μL of 1× Reporter Lysis Buffer (Promega E3971 (diluted in dH2O from 5× stock)) was added to each well and plates frozen at −20° C. overnight. For β-galactosidase enzyme colorimetric assay, plates were thawed out at room temperature and 20 μL 2× assay buffer (Promega) was added to each well. Color was allowed to develop at 37° C., 5% CO2, 90% Rh for 1-1.5 h or until reasonable signal appeared. The colorimetric reaction was stopped with the addition of 60 μL/well 1M sodium carbonate. Plates were counted at 405 nm on a SpectraMax Microplate Reader (Molecular Devices). Data was analyzed in Microsoft Excel and IC/EC50 curves were fit using a standardized macro.

For 11 molecules, IC50 and A1/A2A results are on record in patent US20110105494A1, “HETEROARYL SUBSTITUTED ARYLINDENOPYRIMIDINES AND THEIR USE AS HIGHLY SELECTIVE ADENOSINE A2A RECEPTOR ANTAGONISTS” (priority 2009, published 2011).

T1 sequence (P29274 whole entry): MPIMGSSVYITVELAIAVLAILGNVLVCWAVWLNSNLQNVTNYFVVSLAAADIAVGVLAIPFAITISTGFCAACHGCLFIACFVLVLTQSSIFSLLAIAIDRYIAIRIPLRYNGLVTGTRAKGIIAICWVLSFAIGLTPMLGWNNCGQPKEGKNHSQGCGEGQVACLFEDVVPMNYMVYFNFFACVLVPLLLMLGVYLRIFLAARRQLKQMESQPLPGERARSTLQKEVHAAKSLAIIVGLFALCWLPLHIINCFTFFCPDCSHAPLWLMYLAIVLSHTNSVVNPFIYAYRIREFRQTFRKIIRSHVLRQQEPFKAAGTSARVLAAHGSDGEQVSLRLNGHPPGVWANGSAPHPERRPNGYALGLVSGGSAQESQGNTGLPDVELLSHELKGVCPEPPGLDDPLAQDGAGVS

In the case of `Cc1nc(-c2ccccc2)sc1-c1cccc2c1-c1nc(N)nc(-c3ccccc3)c1C2=O` [Example 1, 2-Amino-9-(4-methyl-2-phenyl-thiazol-5-yl)-4-phenyl-indeno[1,2-d]pyrimidin-5-one], in assay [1], the IC50 (in general, the point on the concentration scale where inhibition reaches its midpoint) was 7.1 nM and the A1/A2A was determined as 1056.34. Besides, the IC50 in assay [2] came out at 7500 nM.

`Nc1nc(-c2ccc(F)cc2)c2c(n1)-c1c(cccc1-c1cnn(CCN3CCOCC3)c1)C2=O` [Example 2, 2-Amino-4-(4-fluoro-phenyl)-9-[1-(2-morpholin-4-yl-ethyl)-1H-pyrazol-4-yl]-indeno[1,2-d]pyrimidin-5-one]: in assay [1], half-maximal inhibition (IC50) was put at 12.7 nM and the A1/A2A is recorded as 160.288. In addition, the IC50 in assay [2] came out at 2030 nM.

For `Cc1nc(-c2ccc(C(F)(F)F)cc2)sc1-c1cccc2c1-c1nc(N)nc(-c3ccc(F)cc3)c1C2=O` [Example 3, 2-Amino-4-(4-fluoro-phenyl)-9-[4-methyl-2-(4-trifluoromethyl-phenyl)-thiazol-5-yl]-indeno[1,2-d]pyrimidin-5-one], the IC50 in assay [1] came out at 50 nM; in assay [2], 5400 nM. For the same molecule, the A1/A2A in assay [1] is recorded as 108.

Regarding `N#Cc1ccc(-c2cccc3c2-c2nc(N)nc(-c4ccccc4)c2C3=O)s1` [Example 4, 5-(2-Amino-5-oxo-4-phenyl-5H-indeno[1,2-d]pyrimidin-9-yl)-thiophene-2-carbonitrile], in assay [1], half-maximal inhibition (IC50) was put at 1.3 nM and the A1/A2A is listed as 92.3077. In addition, the IC50 in assay [2] came to 120 nM.

Regarding `Cc1nc(-c2ccccc2)sc1-c1cccc2c1-c1nc(N)nc(-c3ccc(F)cc3)c1C2=O` [Example 5, 2-Amino-4-(4-fluoro-phenyl)-9-(4-methyl-2-phenyl-thiazol-5-yl)-indeno[1,2-d]pyrimidin-5-one], the IC50 in assay [1] is 17 nM; in assay [2], 920 nM.

Turning to `CCOC(=O)Cn1cc(-c2cccc3c2-c2nc(N)nc(-c4ccc(F)cc4)c2C3=O)cn1` [Example 6, {4-[2-Amino-4-(4-fluoro-phenyl)-5-oxo-5H-indeno[1,2-d]pyrimidin-9-yl]-pyrazol-1-yl}-acetic acid ethyl ester], in assay [1], inhibition was half-maximal at 4.2 nM (IC50) and the A1/A2A was 53.6847. Besides, half-maximal inhibition in assay [2] (IC50) required 225 nM.

`Cc1c(-c2cccc3c2-c2nc(N)nc(-c4ccccc4)c2C3=O)cnn1-c1ccccc1` [Example 7, 2-Amino-9-(5-methyl-1-phenyl-1H-pyrazol-4-yl)-4-phenyl-indeno [1,2-d]pyrimidin-5-one]: in assay [1], the IC50 came out at 17 nM and the A1/A2A was found to be 51.1765. The IC50 in assay [2] came to 870 nM.

With `Nc1nc(-c2ccccc2)c2c(n1)-c1c(cccc1-c1ccc(N3CCN(Cc4ccccc4)CC3)nc1)C2=O` [Example 8, 2-Amino-9-[6-(4-benzyl-piperazin-1-yl)-pyridin-3-yl]-4-phenyl-indeno [1,2-d]pyrimidin-5-one], in assay [1], the half-inhibitory concentration (IC50) amounted to 5.6 nM and the A1/A2A is on record as 100. The same molecule registered an IC50 in assay [2] of 560 nM.

Take `Nc1nc(-c2ccc(F)cc2)c2c(n1)-c1c(cccc1-c1ccc(N3CCN(CC4CC4)CC3)nc1)C2=O` [Example 9, 2-Amino-9-[6-(4-cyclopropylmethyl-piperazin-1-yl)-pyridin-3-yl]-4-(4-fluoro-phenyl)-indeno[1,2-d]pyrimidin-5-one]: in assay [1], the IC50 worked out at 7.9 nM and the A1/A2A was 73.4177. For the same molecule, half-maximal inhibition in assay [2] (IC50) required 580 nM.

Take `Cc1cc(-c2cccc3c2-c2nc(N)nc(-c4ccccc4)c2C3=O)cnc1N1CCN(C)CC1` [Example 10, 2-Amino-9-[5-methyl-6-(4-methyl-piperazin-1-yl)-pyridin-3-yl]-4-phenyl-indeno [1,2-d]pyrimidin-5-one]: the IC50 in assay [1] was found to be 3 nM; in assay [2] it was 190 nM. Also, the A1/A2A in assay [1] amounted to 63.3333.

On to `CC(C)CCN1CCN(c2ccc(-c3cccc4c3-c3nc(N)nc(-c5ccc(F)cc5)c3C4=O)cn2)CC1` [Example 11, 2-Amino-4-(4-fluoro-phenyl)-9-{6-[4-(3-methyl-butyl)-piperazin-1-yl]-pyridin-3-yl}-indeno[1,2-d]pyrimidin-5-one], for which, in assay [1], half-maximal inhibition (IC50) required 18 nM and the A1/A2A worked out at 55.5556. The half-maximal inhibitory concentration (IC50) in assay [2] came to 1000 nM.
